The target in one test is T1, rat B1R (Rattus norvegicus, UniProt P97583).
T1 construct: expressed in transfected cells; host or cells: CHO K1 cells
T1 sequence (P97583 1-337): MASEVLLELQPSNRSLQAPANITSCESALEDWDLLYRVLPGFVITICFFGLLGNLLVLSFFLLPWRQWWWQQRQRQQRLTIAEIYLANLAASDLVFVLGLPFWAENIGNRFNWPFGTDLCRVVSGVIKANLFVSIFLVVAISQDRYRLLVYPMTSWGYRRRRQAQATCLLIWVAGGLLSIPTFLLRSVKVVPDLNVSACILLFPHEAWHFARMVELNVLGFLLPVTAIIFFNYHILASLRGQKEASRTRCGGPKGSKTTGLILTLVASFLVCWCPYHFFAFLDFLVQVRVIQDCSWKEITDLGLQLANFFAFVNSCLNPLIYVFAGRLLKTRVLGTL
Nature of the test: FLIPR Ca2+ functional study on bradykinin receptor 1 (rB1R CHO K1 cells). The format is cell-based. To be noted: % inhibition rat B1R at 10 μM. An outline of the steps:
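CHO K1 cells stably expressing human or rat B1R were loaded with Fluo-4 and read on FLIPR (ex 488/em 540 nm, peak counts). Test compound (10 μM, or a concentration range for IC50) was added first for % activation versus control agonist; after 10-20 min, EC80 Lys-Des-Arg9-bradykinin (human) or Des-Arg9-bradykinin (rat) was added, giving % inhibition of maximum. n=2-3, N≥2.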
With `COc1cc(C)c(S(=O)(=O)N(C)C(COc2nccc(N3CCC(c4nc(-c5ccncc5)no4)CC3)n2)c2ccccc2)c(C)c1` (stereo not shown) [G_CC-134], the “% inh. (rat B1R) 10 μM” value is 88%.

Staying with this test, now noted: CHO-K1, % inhibition rat B1R at 10 μM, read-out: % inh. (rat B1R) 10 μM.
Regarding `COc1cc(C)c(S(=O)(=O)N(C)C(COc2nccc(N3CCC(CCCN4CCCC4)(c4cccnc4)CC3)n2)c2ccccc2)c(C)c1` (stereo not shown) [G_CC-108, 4-methoxy-N,2,6-trimethyl-N-[1-phenyl-2-[4-[4-pyridin-3-yl-4-(3-pyrrolidin-1-yl-propyl)-piperidin-1-yl]-pyrimidin-2-yl]oxy-ethyl]-benzenesulfonic acid amide], the inhibition at 10 µM is 102%.
On the same count and under the same terms, under `COc1cc(C)c(S(=O)(=O)N2CCC[C@H]2COc2nccc(N3CCn4cc(CN5CCCCC5)nc4C3)n2)c(C)c1` [G_CC-109, 7-[2-[[(2S)-1-[(4-methoxy-2,6-dimethyl-phenyl)sulfonyl]-pyrrolidin-2-yl]-methoxy]-pyrimidin-4-yl]-2-(piperidin-1-yl-methyl)-5,6,7,8-tetrahydro-imidazo[1,2-a]pyrazine] stands 98%; under `COc1cc(C)c(S(=O)(=O)N2CCCCC2COc2nccc(N3CCC(O)(c4ccncc4)CC3)n2)c(C)c1` (stereo not shown) [G_CC-111, 1-[2-[[1-[(4-methoxy-2,6-dimethyl-phenyl)sulfonyl]-piperidin-2-yl]-methoxy]-pyrimidin-4-yl]-4-pyridin-4-yl-piperidin-4-ol], 90%.
In the case of `COc1cc(C)c(S(=O)(=O)N(C)C(COc2nccc(N3CCC(O)(c4ccncc4)CC3)n2)c2ccccc2)c(C)c1` (stereo not shown) [G_CC-112, N-[2-[4-(4-hydroxy-4-pyridin-4-yl-piperidin-1-yl)-pyrimidin-2-yl]oxy-1-phenyl-ethyl]-4-methoxy-N,2,6-trimethyl-benzenesulfonic acid amide], the inhibition at 10 µM was 88%.
Same read-out and setting: the result for `COc1cc(C)c(S(=O)(=O)N2CCCCC2COc2nccc(N3CCC(c4ccccc4)(N(C)C)CC3)n2)c(C)c1` (stereo not shown) [G_CC-113, [1-[2-[[1-[(4-methoxy-2,6-dimethyl-phenyl)sulfonyl]-piperidin-2-yl]-methoxy]-pyrimidin-4-yl]-4-phenyl-piperidin-4-yl]-dimethyl-amine] reads 79%.
Same read-out and setting: the result for `COc1cc(C)c(S(=O)(=O)N2CCCC(Oc3nccc(N4CCC(c5ccccc5)(N5CCCC5)CC4)n3)C2)c(C)c1` (stereo not shown) [G_CC-114, 2-[1-[(4-methoxy-2,6-dimethyl-phenyl)sulfonyl]-piperidin-3-yl]oxy-4-(4-phenyl-4-pyrrolidin-1-yl-piperidin-1-yl)-pyrimidine] reads 54%; that for `COc1cc(C)c(S(=O)(=O)N2CCC[C@H]2COc2nccc(N3CCC(c4ccccc4)(N4CCCC4)CC3)n2)c(C)c1` [G_CC-115, 2-[[(2S)-1-[(4-methoxy-2,6-dimethyl-phenyl)sulfonyl]-pyrrolidin-2-yl]-methoxy]-4-(4-phenyl-4-pyrrolidin-1-yl-piperidin-1-yl)-pyrimidine], 81%; that for `COc1cc(C)c(S(=O)(=O)N(C)CCOc2nccc(N3CCC(c4ccccc4)(N4CCCC4)CC3)n2)c(C)c1` [G_CC-116, 4-methoxy-N,2,6-trimethyl-N-[2-[4-(4-phenyl-4-pyrrolidin-1-yl-piperidin-1-yl)-pyrimidin-2-yl]oxy-ethyl]benzenesulfonic acid amide], 64%.
Same read-out and setting: the result for `COc1cc(C)c(S(=O)(=O)N(C)CCOc2nccc(N3CCC(c4ccccc4)(N(C)C)CC3)n2)c(C)c1` [G_CC-117, N-[2-[4-(4-dimethylamino-4-phenyl-piperidin-1-yl)-pyrimidin-2-yl]oxy-ethyl]-4-methoxy-N,2,6-trimethyl-benzenesulfonic acid amide] reads 56%; that for `COc1cc(C)c(S(=O)(=O)N(C)CCOc2nccc(N3CCC(c4cccs4)(N(C)C)CC3)n2)c(C)c1` [G_CC-118, N-[2-[4-(4-dimethylamino-4-thiophen-2-yl-piperidin-1-yl)-pyrimidin-2-yl]oxy-ethyl]-4-methoxy-N,2,6-trimethyl-benzenesulfonic acid amide], 86%.
With `COc1cc(C)c(S(=O)(=O)N(C)CCOc2nccc(N(C)CCN3CCC(c4ccccc4)(N4CCCC4)CC3)n2)c(C)c1` [G_CC-119, 4-methoxy-N,2,6-trimethyl-N-[2-[4-[methyl-[2-(4-phenyl-4-pyrrolidin-1-yl-piperidin-1-yl)-ethyl]-amino]-pyrimidin-2-yl]oxy-ethyl]benzenesulfonic acid amide], the inhibition at 10 µM was 79%.
`CCCCC1(N(C)C)CCN(CCN(C)c2ccnc(OCCN(C)S(=O)(=O)c3c(C)cc(OC)cc3C)n2)CC1` [G_CC-120, N-[2-[4-[2-(4-butyl-4-dimethylamino-piperidin-1-yl)-ethyl-methyl-amino]-pyrimidin-2-yl]oxy-ethyl]-4-methoxy-N,2,6-trimethyl-benzenesulfonic acid amide]: the inhibition at 10 µM was found to be 86%.
In the case of `COc1cc(C)c(S(=O)(=O)N2CCCCC2COc2nccc(N3CCC(c4ccccc4)(N4CCCC4)CC3)n2)c(C)c1` (stereo not shown) [G_CC-121, 2-[[1-[(4-methoxy-2,6-dimethyl-phenyl)sulfonyl]-piperidin-2-yl]-methoxy]-4-(4-phenyl-4-pyrrolidin-1-yl-piperidin-1-yl)-pyrimidine], the inhibition at 10 µM was 75%.
Still for that read-out and setting: the result for `COc1cc(C)c(S(=O)(=O)N2CC(Oc3nccc(N4CCC(c5ccccc5)(N5CCCC5)CC4)n3)C2)c(C)c1` [G_CC-122, 2-[1-[(4-methoxy-2,6-dimethyl-phenyl)sulfonyl]-azetidin-3-yl]oxy-4-(4-phenyl-4-pyrrolidin-1-yl-piperidin-1-yl)-pyrimidine] reads 51%; that for `COc1cc(C)c(S(=O)(=O)N2CC(Oc3nccc(N(C)CCN4CCC(c5ccccc5)(N(C)C)CC4)n3)C2)c(C)c1` [G_CC-123, 2-(4-dimethylamino-4-phenyl-piperidin-1-yl)-ethyl-[2-[1-[(4-methoxy-2,6-dimethyl-phenyl)sulfonyl]-azetidin-3-yl]oxy-pyrimidin-4-yl]-methyl-amine], 81%; that for `COc1cc(C)c(S(=O)(=O)N2CC(Oc3nccc(N(C)CCN4CCC(c5ccccc5)(N5CCCC5)CC4)n3)C2)c(C)c1` [G_CC-124, [2-[1-[(4-methoxy-2,6-dimethyl-phenyl)sulfonyl]-azetidin-3-yl]oxy-pyrimidin-4-yl]-methyl-[2-(4-phenyl-4-pyrrolidin-1-yl-piperidin-1-yl)-ethyl]amine], 57%.
On to `COc1cc(C)c(S(=O)(=O)N2c3ccccc3C[C@H]2COc2nccc(N3CCC(c4cccs4)(N(C)C)CC3)n2)c(C)c1` [G_CC-125, [1-[2-[[(2S)-1-[(4-methoxy-2,6-dimethyl-phenyl)sulfonyl]-2,3-dihydro-1H-indol-2-yl]-methoxy]-pyrimidin-4-yl]-4-thiophen-2-yl-piperidin-4-yl]-dimethyl-amine], for which the inhibition at 10 µM was 58%.
Same read-out and setting: under `COc1cc(C)c(S(=O)(=O)N2CC(Oc3nccc(N(C)CCCN4CCC(c5ccccc5)(N(C)C)CC4)n3)C2)c(C)c1` [G_CC-126, 3-(4-dimethylamino-4-phenyl-piperidin-1-yl)-propyl-[2-[1-[(4-methoxy-2,6-dimethyl-phenyl)sulfonyl]-azetidin-3-yl]oxy-pyrimidin-4-yl]-methyl-amine] stands 77%; under `COc1cc(C)c(S(=O)(=O)N2CC(Oc3nccc(N4CCN(CCCN(C)C)CC4)n3)C2)c(C)c1` [G_CC-127, 3-[4-[2-[1-[(4-methoxy-2,6-dimethyl-phenyl)sulfonyl]-azetidin-3-yl]oxy-pyrimidin-4-yl]-piperazin-1-yl]-propyl-dimethyl-amine], 54%; under `COc1cc(C)c(S(=O)(=O)N2CC(Oc3nccc(N4CCC(O)(c5cccnc5)CC4)n3)C2)c(C)c1` [G_CC-128, 1-[2-[1-[(4-methoxy-2,6-dimethyl-phenyl)sulfonyl]-azetidin-3-yl]oxy-pyrimidin-4-yl]-4-pyridin-3-yl-piperidin-4-ol], 57%.
Same read-out and setting: the result for `COc1cc(C)c(S(=O)(=O)N2CC(Oc3nccc(N4CCC(CCN5CCCCC5)CC4)n3)C2)c(C)c1` [G_CC-129, 2-[1-[(4-methoxy-2,6-dimethyl-phenyl)sulfonyl]-azetidin-3-yl]oxy-4-[4-(2-piperidin-1-yl-ethyl)-piperidin-1-yl]-pyrimidine] reads 73%; that for `COc1cc(C)c(S(=O)(=O)N2c3ccccc3C[C@H]2COc2nccc(N3CC4CC3CN4Cc3ccc(F)cc3)n2)c(C)c1` (stereo partly drawn) [G_CC-130, (2S)-2-[[4-[2-[(4-fluorophenyl)-methyl]-2,5-diazabicyclo[2.2.1]heptan-5-yl]-pyrimidin-2-yl]oxy-methyl]-1-[(4-methoxy-2,6-dimethyl-phenyl)sulfonyl]-2,3-dihydro-1H-indole], 61%; that for `COc1cc(C)c(S(=O)(=O)N2CCCCC2COc2nccc(N3CCC(C)(N4CCOCC4)CC3)n2)c(C)c1` (stereo not shown) [G_CC-131, 4-[1-[2-[[1-[(4-methoxy-2,6-dimethyl-phenyl)sulfonyl]-piperidin-2-yl]-methoxy]-pyrimidin-4-yl]-4-methyl-piperidin-4-yl]-morpholine], 88%.
The same measure, in the same setting: under `COc1cc(C)c(S(=O)(=O)N(C)C(COc2nccc(N3CCCC3Cc3ccccn3)n2)c2ccccc2)c(C)c1` (stereo not shown) [G_CC-133, 4-methoxy-N,2,6-trimethyl-N-[1-phenyl-2-[4-[2-(pyridin-2-yl-methyl)-pyrrolidin-1-yl]-pyrimidin-2-yl]oxy-ethyl]benzenesulfonic acid amide] stands 78%.

Source of the values: patent US8269000B2, “Substituted pyrimidine and triazine compounds” (Gruenenthal GmbH, priority 2008, dated 2012).
